Read-outs that look alike come from different tables or passages of the source.
Assays:
[1] = target: recombinant human Mcl-1 (residues 171-327) / Bim interaction (Homo sapiens (Human), UniProt Q07820); assay: biochemical; type: binding; settings: read-out: Mcl-1 HTRF IC50
[2] = system: human multiple myeloma cell line, OPM-2; assay: Cell viability assay (OPM-2 10 FBS), CellTiter-Glo; type: cell-based
How it was run: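 Serially diluted test compounds are incubated 16 h with cells (3000/well) in RPMI 1640 supplemented with 10% FBS. Viability is then measured by luminescence and IC50 calculated by 4-parameter logistic fit.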

[3] = 0.1 nM Mcl-1(171-327), 0.05 nM biotin-Bim (51-76)
[4] = Homo sapiens, OPM-2, 16 h, read-out: OPM-2 10% FBS IC50 IP, OPM-2 cells, 10% FBS, 16 h incubation
[5] = TR-FRET, Mcl-1(171-327) / biotin-Bim (51-76)
[6] = Homo sapiens, OPM-2, 16 h, read-out: OPM-2 10% FBS IC50 IP, OPM-2 cells, 10% FBS, 16 h, CellTiter-Glo

Sequence of recombinant human Mcl-1 (residues 171-327) / Bim interaction (Q07820 171-327): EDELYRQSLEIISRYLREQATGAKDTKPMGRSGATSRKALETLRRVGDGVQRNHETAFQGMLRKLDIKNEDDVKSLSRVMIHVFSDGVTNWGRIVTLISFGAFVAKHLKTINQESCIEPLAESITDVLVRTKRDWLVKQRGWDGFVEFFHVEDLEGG

Q: Which IC50 [1, 3] does the source give for `COCC[C@@H]1[C@@H](C)C/C=C/[C@](CN2CCN(Cc3noc(C)n3)CC2)(OC)[C@@H]2CC[C@H]2CN2C[C@@]3(CCCc4cc(Cl)ccc43)COc3ccc(nc32)C(=O)NS1(=O)=O` [Example 26, (1S,3′R,6′R,7′S,8′E,11′S,12′R)-6-chloro-7′-methoxy-12′-(2-methoxyethyl)-11′-methyl-7′-((4-((5-methyl-1,2,4-oxadiazol-3-yl)methyl)-1-piperazinyl)methyl)-3,4-dihydro-2H,15′H-spiro[naphthalene-1,22′-[20]oxa[13]thia[1,14,25]triazatetracyclo [14.7.2.0~3,6~.0~19,24~]pentacosa[8,16,18,24]tetraen]-15′-one 13′,13′-dioxide] here?
A: 0.079 nM

Q: And the IC50 [2, 4]?
A: 32 nM

Q: What does the source list for `CO[C@]1(c2cncc(CN3CCOCC3)c2)/C=C/C[C@H](C)[C@@H](C)S(=O)(=O)NC(=O)c2ccc3c(c2)N(C[C@@H]2CC[C@H]21)C[C@@]1(CCCc2cc(Cl)ccc21)CO3` (stereo in doubt) [Example 100521]?
A: IC50 [1, 5]: 0.197 nM; IC50 [2, 6]: 296 nM

Q: Which results are given for `C[C@@H]1[C@@H](C)C/C=C/[C@](O)(C2CC2)[C@@H]2CC[C@H]2CN2C[C@@]3(CCCc4cc(Cl)ccc43)COc3ccc(cc32)C(=O)NS1(=O)=O` [Example 100213, (1S,3′R,6′R,7′R,8′E,11′S,12′R)-6-chloro-7′-cyclopropyl-7′-hydroxy-11′,12′-dimethyl-3,4-dihydro-2H,15′H-spiro[naphthalene-1,22′-[20]oxa[13]thia[1,14]diazatetracyclo [14.7.2.0~3,6~.0~19,24~]pentacosa[8,16,18,24]tetraen]-15′-one 13′,13′-dioxide]?
A: IC50 [1, 5]: 2.84 nM; IC50 [2, 6]: 2020 nM

Q: Which results are given for `CO[C@@]1(CN2CCN3CCN(C)C[C@@H]3C2)/C=C/C[C@H](C)[C@@H](C)S(=O)(=O)NC(=O)c2ccc3c(c2)N(C[C@@H]2CC[C@H]21)C[C@@]1(CCCc2cc(Cl)ccc21)CO3` [Example 210]?
A: IC50 [1, 3]: 0.138 nM; IC50 ([2]; read-out: OPM-2 10% FBS IC50 IP, OPM-2 cells, 10% FBS, 16 h incubation): 185 nM

Q: How did the IC50 [1, 5] turn out when `C[C@@H]1[C@@H](C)CCC[C@](O)(CC(=O)N2CCOCC2)[C@@H]2CC[C@H]2CN2C[C@@]3(CCCc4cc(Cl)ccc43)COc3ccc(cc32)C(=O)NS1(=O)=O` (single isomer, unassigned) [Example 100087] was run?
A: 0.864 nM

Q: And the IC50 [2, 6]?
A: 187 nM

Q: What does the source list for `CC[C@@H]1CC/C=C/[C@@](CN2CCN3CCOC[C@@H]3C2)(OC)[C@@H]2CC[C@H]2CN2C[C@@]3(CCCc4cc(Cl)ccc43)COc3ccc(cc32)C(=O)NS1(=O)=O` [Example 30, (1S,3′R,6′R,7′R,8′E,12′R)-6-chloro-12′-ethyl-7′-((9aS)-hexahydropyrazino[2,1-c][1,4]oxazin-8(1H)-ylmethyl)-7′-methoxy-3,4-dihydro-2H,15′H-spiro[naphthalene-1,22′-[20]oxa[13]thia[1,14]diazatetracyclo [14.7.2.0~3,6~.0~19,24~]pentacosa[8,16,18,24]tetraen]-15′-one 13′,13′-dioxide]?
A: IC50 [1, 3]: 0.11 nM; IC50 [2, 4]: 166 nM

Q: For `C[C@@H]1[C@@H](C)C/C=C/[C@@](O)(C#CCC2CCOCC2)[C@@H]2CC[C@H]2CN2C[C@@]3(CCCc4cc(Cl)ccc43)COc3ccc(cc32)C(=O)NS1(=O)=O` [Example 100432, (1S,3′R,6′R,7′S,8′E,11′S,12′R)-6-chloro-7′-hydroxy-11′,12′-dimethyl-7′-(3-(tetrahydro-2H-pyran-4-yl)-1-propyn-1-yl)-3,4-dihydro-2H,15′H-spiro[naphthalene-1,22′-[20]oxa[13]thia[1,14]diazatetracyclo [14.7.2.0~3,6~.0~19,24~]pentacosa[8,16,18,24]tetraen]-15′-one 13′,13′-dioxide], which IC50 [1, 5] is on record?
A: 0.228 nM

Q: And the IC50 [2, 6]?
A: 711 nM

Q: For `C=CC[C@@]1(O)/C=C/C[C@H](C)[C@@H](C)S(=O)(=O)NC(=O)c2ccc3c(c2)N(C[C@@H]2CC[C@H]21)C[C@@]1(CCCc2cc(Cl)ccc21)CO3` (stereo in doubt) [Example 100127], which IC50 [1, 5] is on record?
A: 0.175 nM

Q: What about the IC50 ([2]; read-out: OPM-2 10% FBS IC50 IP, OPM-2 cells, 10% FBS, 16 h, CellTiter-Glo) of the same compound?
A: 108 nM

Source: US10821115B2, “Compounds that inhibit Mcl-1 protein” (priority 2017, dated 2020)
